Target: PDZ-mNG (Homo sapiens, UniProt Q96RT1)
Assay: Binding kinetics of PDZ-mNG to peptDTWV in fixed COS7 cells
Assay type: cell-based
Conditions: PFA or PFA/GA fixation, compared with kinetics at nanoparticles; result in words

effect of fixation on peptDTWV/PDZ-mNG interaction: not affected by fixation
Substance: RGSIDTWV-cooh [peptDTWV]

Source: paper PMC8631740 (Nano Letters, 2021)
